Data taken from patent US6645918B1, “N-([1,2,4]triazoloazinyl)thiophenesulfonamide compounds and their use as herbicides” (Dow AgroSciences LLC, priority 2000, dated 2003).

Tests used:
Format in all cases: in vivo
[1] = system: chickweed (Stellaria media); experiment: Postemergence herbicidal activity, chickweed; settings: foliar spray, visual after 2 weeks, 0 no injury, 100 complete kill
Experimental: (§1) Seeds of the desired test plant species were planted in Grace-Sierra MetroMix® 306 planting mixture, which typically has a pH of 6.0 to 6.8 and an organic matter content of about 30 percent, in plastic pots with a surface area of 64 square centimeters. When required to ensure good germination and healthy plants, a fungicide treatment and/or other chemical or physical treatment was applied. The plants were grown for 7-21 days in a greenhouse with an approximately 15 hr photoperiod which was maintained at about 23-29° C. during the day and 22-28° C. during the night. Nutrients and water were added on a regular basis and supplemental lighting was provided with overhead metal halide 1000 Watt lamps as necessary. The plants were employed for testing when they reached the first or second true leaf stage. A weighed amount of each test compound, determined by the highest rate to be tested, was placed in a 20 mL glass vial and was dissolved in 4 mL of a 97:3 v/v (volume/volume) mixture of acetone and dimethyl sulfoxide to obtain concentrated stock solutions. […] The concentrated stock solutions obtained were diluted with an aqueous mixture containing acetone, water, iso-propyl alcohol, dimethyl sulfoxide, Atplus 411F crop oil concentrate, and Triton X-155 surfactant (methylenebisdiamyl phenoxy polyethoxy ethanol) in a 48.5:39:10:1.5:1.0:0.02 v/v ratio to obtain spray solutions of known concentration. The solutions containing the highest concentration to be tested were prepared by diluting 2 mL aliquots of the stock solution with 13 mL of the mixture and lower concentrations were prepared by dilution of appropriate smaller portions of the stock solution. Approximately 1.5 mL aliquots of each solution of known concentration were sprayed evenly onto each of the test plant pots using a DeVilbiss atomizer driven by compressed air pressure of 2 to 4 psi (140 to 280 kilopascals) to obtain thorough coverage of each plant. Control plants were sprayed in the same manner with the aqueous mixture. In this test an application rate of 1 ppm results in the application of approximately 1 g/ha. The treated plants and control plants were placed in a greenhouse as described above and watered by sub-irrigation to prevent wash-off of the test compounds. After 2 weeks the condition of the test plants as compared with that of the untreated plants was determined visually and scored on a scale of 0 to 100 percent where 0 corresponds to no injury and 100 corresponds to complete kill.

[2] = system: cocklebur (Xanthium strumarium); experiment: Postemergence herbicidal activity, cocklebur; settings: foliar spray, visual after 2 weeks, 0 no injury, 100 complete kill
Experimental: as §1

[3] = system: lambsquarters (Chenopodium album); experiment: Postemergence herbicidal activity, lambsquarters; settings: foliar spray, visual after 2 weeks, 0 no injury, 100 complete kill
Experimental: as §1

[4] = system: morningglory (Ipomoea hederacea); experiment: Postemergence herbicidal activity, morningglory; settings: foliar spray, visual after 2 weeks, 0 no injury, 100 complete kill
Experimental: as §1

[5] = system: pigweed (Amaranthus retroflexus); experiment: Postemergence herbicidal activity, pigweed; settings: foliar spray, visual after 2 weeks, 0 no injury, 100 complete kill
Experimental: as §1

[6] = system: velvetleaf (Abutilion theophrasti); experiment: Postemergence herbicidal activity, velvetleaf; settings: foliar spray, visual after 2 weeks, 0 no injury, 100 complete kill
Experimental: as §1

[7] = system: viola (Viola tricolor); experiment: Postemergence herbicidal activity, viola; settings: foliar spray, visual after 2 weeks, 0 no injury, 100 complete kill
Experimental: as §1

[8] = system: wild buckwheat (Polygonum convolvulus); experiment: Postemergence herbicidal activity, wild buckwheat; settings: foliar spray, visual after 2 weeks, 0 no injury, 100 complete kill
Experimental: as §1

[9] = system: blackgrass (Alopecurus myosuroides); experiment: Postemergence herbicidal activity, blackgrass; settings: foliar spray, visual after 2 weeks, 0 no injury, 100 complete kill
Experimental: as §1

[10] = system: giant foxtail (Setaria faberi); experiment: Postemergence herbicidal activity, giant foxtail; settings: foliar spray, visual after 2 weeks, 0 no injury, 100 complete kill
Experimental: as §1

[11] = system: Rox orange sorghum (Sorghum bicolor); experiment: Postemergence herbicidal activity, Rox orange sorghum; settings: foliar spray, visual after 2 weeks, 0 no injury, 100 complete kill
Experimental: as §1

[12] = system: wild oats (Avena fatua); experiment: Postemergence herbicidal activity, wild oats; settings: foliar spray, visual after 2 weeks, 0 no injury, 100 complete kill
Experimental: as §1

[13] = system: cocklebur (Xanthium strumarium); experiment: Preemergence herbicidal activity, cocklebur; settings: soil spray, visual after 3 weeks, 0 no injury, 100 complete kill or no germination
Experimental: (§2) The soil matrix was contained in plastic pots with a surface area of 161 square centimeters. When required to ensure good germination and healthy plants, a fungicide treatment and/or other chemical or physical treatment was applied. A weighed amount, determined by the highest rate to be tested, of each test compound was placed in a 20 mL glass vial and was dissolved in 8 mL of a 97:3 v/v (volume/volume) mixture of acetone and dimethyl sulfoxide to obtain concentrated stock solutions. […] The stock solutions obtained were diluted with a 99.9:0.1 mixture of water and Tween® 155 surfactant (ethoxylated sorbitan fatty acid ester) to obtain application solutions of known concentration. The solutions containing the highest concentration to be tested were prepared by diluting 4 mL aliquots of the stock solution with 8.5 mL of the mixture and lower concentrations were prepared by dilution of appropriate smaller portions of the stock solution. A 2.5 mL aliquot of each solution of known concentration was sprayed evenly onto the soil of each seeded pot using a Cornwall 5.0 mL glass syringe fitted with a TeeJet TN-3 hollow cone nozzle to obtain thorough coverage of the soil in each pot. Control pots were sprayed in the same manner with the aqueous mixture. A highest application rate of 4.48 kg/ha is achieved when 50 mg of test compound is employed. The treated pots and control pots were placed in a greenhouse with an approximately 15 hr photoperiod which was maintained at about 23-29° C. during the day and 22-28° C. during the night. Nutrients and water were added on a regular basis and supplemental lighting was provided with overhead metal halide 1000 Watt lamps as necessary. The water was added by top-irrigation. After 3 weeks the condition of the test plants that germinated and grew as compared with that of the untreated plants that germinated and grew was determined visually and scored on a scale of 0 to 100 percent where 0 corresponds to no injury and 100 corresponds to complete kill or no germination.

[14] = system: lambsquarters (Chenopodium album); experiment: Preemergence herbicidal activity, lambsquarters; settings: soil spray, visual after 3 weeks, 0 no injury, 100 complete kill or no germination
Experimental: as §2

[15] = system: morningglory (Ipomoea hederacea); experiment: Preemergence herbicidal activity, morningglory; settings: soil spray, visual after 3 weeks, 0 no injury, 100 complete kill or no germination
Experimental: as §2

[16] = system: pigweed (Amaranthus retroflexus); experiment: Preemergence herbicidal activity, pigweed; settings: soil spray, visual after 3 weeks, 0 no injury, 100 complete kill or no germination
Experimental: as §2

[17] = system: velvetleaf (Abutilion theophrasti); experiment: Preemergence herbicidal activity, velvetleaf; settings: soil spray, visual after 3 weeks, 0 no injury, 100 complete kill or no germination
Experimental: as §2

[18] = system: wild poinsettia (Euphorbia heterophylla); experiment: Preemergence herbicidal activity, wild poinsettia; settings: soil spray, visual after 3 weeks, 0 no injury, 100 complete kill or no germination
Experimental: as §2

[19] = system: blackgrass (Alopecurus myosuroides); experiment: Preemergence herbicidal activity, blackgrass; settings: soil spray, visual after 3 weeks, 0 no injury, 100 complete kill or no germination
Experimental: as §2

[20] = system: barnyardgrass (Echinochloa crus-galli); experiment: Preemergence herbicidal activity, barnyardgrass; settings: soil spray, visual after 3 weeks, 0 no injury, 100 complete kill or no germination
Experimental: as §2

[21] = system: crabgrass (Digitaria sanguinalis); experiment: Preemergence herbicidal activity, crabgrass; settings: soil spray, visual after 3 weeks, 0 no injury, 100 complete kill or no germination
Experimental: as §2

[22] = system: giant foxtail (Setaria faberi); experiment: Preemergence herbicidal activity, giant foxtail; settings: soil spray, visual after 3 weeks, 0 no injury, 100 complete kill or no germination
Experimental: as §2

[23] = system: Rox orange sorghum (Sorghum bicolor); experiment: Preemergence herbicidal activity, Rox orange sorghum; settings: soil spray, visual after 3 weeks, 0 no injury, 100 complete kill or no germination
Experimental: as §2

[24] = system: wild oats (Avena fatua); experiment: Preemergence herbicidal activity, wild oats; settings: soil spray, visual after 3 weeks, 0 no injury, 100 complete kill or no germination
Experimental: as §2

Structure (SMILES)	XANST preemergence injury score 0-100 ([13]; 35 g/Ha) [%]	CHEAL preemergence injury score 0-100 ([14]; 35 g/Ha) [%]	IPOHE preemergence injury score 0-100 ([15]; 35 g/Ha) [%]	AMARE preemergence injury score 0-100 ([16]; 35 g/Ha) [%]	ABUTH preemergence injury score 0-100 ([17]; 35 g/Ha) [%]	EPHHL preemergence injury score 0-100 ([18]; 35 g/Ha) [%]	ALOMY preemergence injury score 0-100 ([19]; 35 g/Ha) [%]	ECHCG preemergence injury score 0-100 ([20]; 35 g/Ha) [%]	DIGSA preemergence injury score 0-100 ([21]; 35 g/Ha) [%]	SETFA preemergence injury score 0-100 ([22]; 35 g/Ha) [%]	SORBI preemergence injury score 0-100 ([23]; 35 g/Ha) [%]	AVEFA preemergence injury score 0-100 ([24]; 35 g/Ha) [%]	STEME postemergence injury score 0-100 ([1]; 15.6 ppm) [%]	XANST postemergence injury score 0-100 ([2]; 15.6 ppm) [%]	CHEAL postemergence injury score 0-100 ([3]; 15.6 ppm) [%]	IPOHE postemergence injury score 0-100 ([4]; 15.6 ppm) [%]	AMARE postemergence injury score 0-100 ([5]; 15.6 ppm) [%]	ABUTH postemergence injury score 0-100 ([6]; 15.6 ppm) [%]	VIOTR postemergence injury score 0-100 ([7]; 15.6 ppm) [%]	POLCO postemergence injury score 0-100 ([8]; 15.6 ppm) [%]	further results
COc1cscc1S(=O)(=O)Nc1nc2c(Cl)cnc(OC)n2n1 [Compound 14]	60	98	60	80	80	30	100	98	100	100	100	100									STEME postemergence injury score 0-100 ([1]; 31.3 ppm): 100%; XANST postemergence injury score 0-100 ([2]; 31.3 ppm): 95%; CHEAL postemergence injury score 0-100 ([3]; 31.3 ppm): 100%; IPOHE postemergence injury score 0-100 ([4]; 31.3 ppm): 80%; AMARE postemergence injury score 0-100 ([5]; 31.3 ppm): 95%; ABUTH postemergence injury score 0-100 ([6]; 31.3 ppm): 90%; VIOTR postemergence injury score 0-100 ([7]; 31.3 ppm): 75%; POLCO postemergence injury score 0-100 ([8]; 31.3 ppm): 95%; ALOMY postemergence injury score 0-100 ([9]; 31.3 ppm): 80%; SETFA postemergence injury score 0-100 ([10]; 31.3 ppm): 95%; SORBI postemergence injury score 0-100 ([11]; 31.3 ppm): 95%; AVEFA postemergence injury score 0-100 ([12]; 31.3 ppm): 80%
COc1cscc1S(=O)(=O)Nc1nc2c(OC)ccc(OC)n2n1 [Compound 16]	40	80	0	60	40	0	100	0	30	0	0	0	90	95	95	60	95	80	70	90	ALOMY postemergence injury score 0-100 ([9]; 15.6 ppm): 85%; SETFA postemergence injury score 0-100 ([10]; 15.6 ppm): 90%; SORBI postemergence injury score 0-100 ([11]; 15.6 ppm): 90%; AVEFA postemergence injury score 0-100 ([12]; 15.6 ppm): 80%
COc1cc(OC)n2nc(NS(=O)(=O)c3c(OC)csc3Cl)nc2n1 [Compound 19]													95	95	100	80	100	80	100	95	ALOMY postemergence injury score 0-100 ([9]; 15.6 ppm): 70%; SETFA postemergence injury score 0-100 ([10]; 15.6 ppm): 100%; SORBI postemergence injury score 0-100 ([11]; 15.6 ppm): 100%; AVEFA postemergence injury score 0-100 ([12]; 15.6 ppm): 100%; XANST preemergence injury score 0-100 ([13]; 8.8 g/Ha): 50%; CHEAL preemergence injury score 0-100 ([14]; 8.8 g/Ha): 90%; IPOHE preemergence injury score 0-100 ([15]; 8.8 g/Ha): 90%; AMARE preemergence injury score 0-100 ([16]; 8.8 g/Ha): 75%; ABUTH preemergence injury score 0-100 ([17]; 8.8 g/Ha): 95%; EPHHL preemergence injury score 0-100 ([18]; 8.8 g/Ha): 90%; ALOMY preemergence injury score 0-100 ([19]; 8.8 g/Ha): 95%; ECHCG preemergence injury score 0-100 ([20]; 8.8 g/Ha): 95%; DIGSA preemergence injury score 0-100 ([21]; 8.8 g/Ha): 100%; SETFA preemergence injury score 0-100 ([22]; 8.8 g/Ha): 100%; SORBI preemergence injury score 0-100 ([23]; 8.8 g/Ha): 95%; AVEFA preemergence injury score 0-100 ([24]; 8.8 g/Ha): 100%
